System: strained rumen fluids
Test: In vitro incubation of sheep rumen fluid with ground diet: formation of methane and VFA
Type: cell-based
Parameters: Methane production / Total VFA: unit not given here
Settings: for Effect on the formation of VFA (in words) / Effect on the formation of methane (in words): in vitro, versus control
Procedure: The efficacy of some essential oil compounds obtainable from plants was tested regarding their influence on the formation of methane and VFA in an in vitro system.
According to the test 200 mg of a ground diet, containing 50% hay, 30% barley, 9.5% molasses, 10% fishmeal and 0.5% vitamins, was added to wheaton bottles. To a triplicate of bottles containing the diet, 0.6 ml of a dissolution of one of the essential oil compounds mentioned in the table below, into propylene glycol was added to each bottle.
Three sheep were fed on the ground diet and strained rumen fluids in amounts of 500 ml were mixed with 1000 ml of Colemans Simplex buffer. The buffer had the following composition.
30 ml of the combined rumen fluid and the buffer were then introduced into the bottles, and their contents were incubated under CO2 at 39° C. for 24 hours. The methane production and the total amount of VFA was then measured. […]

[1] = 0.6 ml dissolution in propylene glycol per bottle, 200 mg diet, 30 ml rumen fluid/buffer, under CO2, 39° C., 24 hours

Compound	Effect on the formation of VFA (in words)	Effect on the formation of methane (in words)	Methane production [1]	Total VFA [1]
c1ccc2ncccc2c1 [Quinoline]	promoting effect	methane-reducing effect		
Cc1ccc(C(C)C)c(O)c1 [Thymol]	notable reducing effect	strong methane-reducing effect		
Vanilla	promoting effect	methane-reducing effect	1055	1300

Reference: patent publication US7763273B2, “Method for reducing methane production emanating from the digestive activities of an animal” (DSM IP Assets B.V., priority 2002, dated 2010)
